# Test results published in article PMC8693998 (Journal of natural products, 2021).
# “Also recorded” adds a separate entry of the source.
# Columns and labels:
# [1] = test system: human μ-opioid receptor (MOR); experiment: Human μ-opioid receptor binding affinity quoted from the literature; settings: fold lower affinity than found in the present study
# human μ-opioid receptor = human μ-opioid receptor (Homo sapiens, UniProt P35372); format: binding
# [2] = test system: human μ-opioid receptor (MOR); settings: cited from earlier work
# [3] = target: human μ-opioid receptor (MOR); settings: read-out: μ-opioid, Ki ± SEM; cited from earlier work
# [4] = test system: hot plate latency in catheterized rats; experiment: Rat hot plate antinociception assay; format: in vivo, Sprague–Dawley rats
# human μ-opioid receptor, sequence (P35372 whole entry): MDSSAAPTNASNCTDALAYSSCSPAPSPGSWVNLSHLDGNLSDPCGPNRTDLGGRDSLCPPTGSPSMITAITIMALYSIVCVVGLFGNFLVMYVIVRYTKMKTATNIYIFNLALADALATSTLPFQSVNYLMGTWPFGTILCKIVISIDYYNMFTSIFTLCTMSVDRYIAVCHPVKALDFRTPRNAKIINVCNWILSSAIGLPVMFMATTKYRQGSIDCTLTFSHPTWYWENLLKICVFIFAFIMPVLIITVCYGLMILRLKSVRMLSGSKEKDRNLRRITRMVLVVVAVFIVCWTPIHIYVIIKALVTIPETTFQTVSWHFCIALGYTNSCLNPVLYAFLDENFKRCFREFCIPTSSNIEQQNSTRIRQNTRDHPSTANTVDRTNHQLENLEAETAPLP
smiles,measurement,setting,value
"CC[C@@H]1CN2CC[C@]3(C(=O)Nc4ccccc43)[C@@H]2C[C@@H]1/C(=C\OC)C(=O)OC [corynoxine B (2), corynoxine B]",μ-opioid affinity in a recent study relative to the present study,[1],approximately 15 fold
same,Loss of hMOR affinity relative to corynoxine (1),"human μ-opioid receptor; human μ-opioid receptor, […]",about 6 times
"CC[C@@H]1CN2CCc3c([nH]c4cccc(OC)c34)[C@@H]2C[C@@H]1/C(=C\OC)C(=O)OC [mitragynine (6), mitragynine]",Type of activity at the human μ-opioid receptor,[2],partial agonists
"CC[C@@H]1CN2CC[C@@]3(O)C(=Nc4cccc(OC)c43)[C@@H]2C[C@@H]1/C(=C\OC)C(=O)OC [7-hydroxymitragynine (11), 7-hydroxymitragynine, reference compound]",Ki,[3],7.2 nM
same,Type of activity at the human μ-opioid receptor,[2],partial agonists
"CC[C@@H]1CN2CC[C@]3(C(=O)Nc4cccc(OC)c43)[C@@H]2C[C@@H]1/C(=C\OC)C(=O)OC [mitragynine oxindole B (4), mitragynine oxindole B]",Loss of hMOR affinity relative to corynoxine B (2),human μ-opioid receptor,16 fold
"CC[C@@H]1CN2CCc3c([nH]c4cccc(OC)c34)[C@H]2C[C@@H]1/C(=C\OC)C(=O)OC [speciociliatine (9), speciociliatine]",Type of activity at the human μ-opioid receptor,[2],partial agonists
"CC[C@@H]1CN2CC[C@@]3(C(=O)Nc4ccccc43)[C@@H]2C[C@@H]1/C(=C\OC)C(=O)OC [corynoxine (1), corynoxine]",Reversal of antinociception by naltrexone,"[4]; rat hot plate, 0.1 mg/kg (i.v.) naltrexone after cumulative doses, 0.1 mg/kg",fully reversed; also recorded: antagonized by naltrexone
same,Potency relative to morphine in hot plate assay,"[4]; rats, nociceptive hot plate assay, fold more potent than morphine",1.8 fold
